Legend:
Format in all cases: cell-based, human
SNU638 cells [1] = assay: Transfilter migration assay in galectin-3-overexpressing SNU638 cells; settings: SNU638 cells infected with galectin-3 lenti-virus
Experimental: (§1) (A) Expression levels of galectin-3 and fascin-1 were detected by Western blot analysis in SNU-638 cells which were infected with a lenti-virus containing LacZ or galectin-3 and then transfected with fascin-1 siRNA or scrambled RNA as a negative control. β-actin was used as a loading control. (B and C) These cells were analyzed by migration assay (B) and invasion assay (C), presented as histograms (P<0.0005);
(§2) Transfilter migration and invasion assays were performed with 8.0-μm pore inserts in a 24-well Transwell. For this assay, MKN-28 and SNU638 cells were transfected overnight with siRNAs. Then, they were isolated and added to the upper chamber of a Transwell with 0.5 mg/mL collagen type 1 (BD Bioscience)-coated filters in migration assay. The invasion assay was performed using 1/15 diluted Matrigel (BD Bioscience)-coated filters at 2×10^4 cells/well. RPMI 1640 supplemented with 10% fetal bovine serum and 1% antibiotics was added to the lower chamber and the cells were allowed to incubate for 20 hours. Migrating and invading cells were quantified after H&E staining. Each experiment was performed in triplicate and mean values are presented. A wound healing assay was performed according to the published protocol (Liang C C, Park A Y, Guan J L. In vitro scratch assay: a convenient and inexpensive method for analysis of cell migration in vitro. Nat Protoc 2007; 2:329-33).

MKN-28 cells [2] = assay: Colony formation (soft agar growth) assay; settings: 3 weeks
Experimental: A layer of 0.5 mL RPMI 1640 containing 0.5% agar and 5% fetal bovine serum was placed in 24-well plates. After solidification of this bottom layer, cells transfected with galectin-3 and fascin-1 siRNAs (1.25×10^4 per well) were poured into a top layer of 0.25 mL RPMI 1640 containing 0.3% agar and 5% fetal bovine serum. Colonies were scored by microscopic examination after 3 weeks. All samples were prepared in triplicate.

fascin-1 [3] = assay: Western blot of fascin-1 in galectin-3-overexpressing SNU638 cells; settings: SNU638 cells infected with galectin-3 lenti-virus
Experimental: as §1
(§3) For use in Western blotting and immunoprecipitation, cell lysates were prepared in RIPA buffer containing a protease inhibitor cocktail. Immunoblotting was performed with anti-galectin-3, anti-fascin-1, anti-GSK-3β, anti-TCF-4 (Santa-Cruz), anti-GSK-3β[pS^[…]] (biosourse), anti-β-catenin and anti-lamin A/C (Cell-Signaling), and anti-β-actin (Sigma). Immunoprecipitation was performed with A/G agarose beads coated with anti-galectin-3 and anti-β-catenin. Proteins were detected by Western Blotting with anti-galectin-3, anti-β-catenin, anti-GSK-3β and anti-TCF-4. Mouse/rabbit IgG was used as a negative control.
The full-length human galectin-3 gene cloned in the expression vector pcDNA3.1-NT-GFP-gal3 was amplified by PCR using a primer set of 5′-[…]-3′ (SEQ ID NO. 13) and 5′-[…]-3′ (SEQ ID NO. 14). The PCR product thus obtained was cloned into pcDNA3.1-NT-GFP using the TA cloning method (Invitrogen). […]

MKN-28 cells [4] = assay: Transfilter migration assay; settings: 20 hours, collagen type 1-coated filters
Experimental: as §2

SNU638 cells [5] = assay: Invasion assay in galectin-3-overexpressing SNU638 cells; settings: SNU638 cells infected with galectin-3 lenti-virus
Experimental: as §1, §2

MKN-28 cells [6] = assay: Wound healing assay
Experimental: as §2

fascin-1 [7] = assay: RT-PCR and Western blotting of fascin-1 after siRNA transfection in MKN-28 cells
Experimental: (A) mRNA and protein levels of galectin-3 and fascin-1 in human gastric cancer MKN-28 cells after transfection with scrambled siRNA (scRNA) or galectin-3 siRNA at two different concentrations (5 and 10 nmol/L). Total RNA and protein obtained from the cells harvested 48 hrs after the transfection were analyzed by RT-PCR and Western blotting. β-actin was used as a loading control. (B) Immunocytochemical analysis of scRNA or galectin-3 siRNA-transfected MKN-28 cells by DAPI (blue), anti-fascin-1 FITC (green) and anti-F-actin Texas Red (red) was detected with a confocal microscope. Bars represent a length of 10 μm. (C and D) A histogram depicting the migration of galectin-3 silenced cells. […] (E) Expression levels of galectin-3 and fascin-1 in SNU-638 cells were determined by Western blotting after transfection with pcDNA3.1/NT-GFP-Galectin-3 and vector control of pcDNA3.1/NT-GFP. β-actin was used as a loading control;
(A) Fascin-1 protein expression in MKN-28 cells transfected with scrambled siRNA (scRNA) or fascin-1 siRNA. β-actin was used as a loading control. […] Cell migration was measured by microscopy; […]
(§4) For use in Western blotting and immunoprecipitation, cell lysates were prepared in RIPA buffer containing a protease inhibitor cocktail. […] Proteins were detected by Western Blotting with anti-galectin-3, anti-β-catenin, anti-GSK-3β and anti-TCF-4. […]

MKN-28 cells [8] = assay: Invasion assay (Matrigel-coated filters); settings: 20 hours
Experimental: as §2

MKN-28 cells [9] = assay: Immunocytochemistry (fascin-1, F-actin, cell morphology); settings: confocal microscopy
Experimental: (§5) (A) mRNA and protein levels of galectin-3 and fascin-1 in human gastric cancer MKN-28 cells after transfection with scrambled siRNA (scRNA) or galectin-3 siRNA at two different concentrations (5 and 10 nmol/L). Total RNA and protein obtained from the cells harvested 48 hrs after the transfection were analyzed by RT-PCR and Western blotting. β-actin was used as a loading control. (B) Immunocytochemical analysis of scRNA or galectin-3 siRNA-transfected MKN-28 cells by DAPI (blue), anti-fascin-1 FITC (green) and anti-F-actin Texas Red (red) was detected with a confocal microscope. Bars represent a length of 10 μm. (C and D) A histogram depicting the migration of galectin-3 silenced cells. The results of the migration assay are presented with a statistical significance (P<0.0005) (C), and in cell photographs (D). (E) Expression levels of galectin-3 and fascin-1 in SNU-638 cells were determined by Western blotting after transfection with pcDNA3.1/NT-GFP-Galectin-3 and vector control of pcDNA3.1/NT-GFP. β-actin was used as a loading control;
(A) Fascin-1 protein expression in MKN-28 cells transfected with scrambled siRNA (scRNA) or fascin-1 siRNA. β-actin was used as a loading control. (B) Immunocytochemical analysis of MKN-28 cells transfected with scRNA or fascin-1 siRNA by DAPI (blue), anti-fascin-1 FITC (green) and anti-F-actin Texas Red (red) was conducted using confocal microscopy. Bars represent 10 μm in length. (C) Cell migration in fascin-1-silenced MKN-28 cells. Results of the migration assay are presented as a histogram, with statistical significance (P<0.0004). ([…]) (D) Colony formation assay, (E) invasion assay, and (F) wound healing assay of MKN-28 cells were performed with transfected galectin-3 and fascin-1 siRNAs. Results of the colony formation assay and invasion assay are shown as a histogram, with statistical significance (P<0.0005). Cell migration was measured by microscopy;
(§6) Cells cultured in chamber slides were fixed and blocked with 5% bovine serum albumin (BSA) in PBS and then incubated with primary anti-galectin-3, anti-fascin-1, anti-GSK-3β, anti-β-catenin antibodies diluted (1:200) in PBS. The cells were conjugated with the secondary antibodies labeled with FITC, Cy5 (Zymed), or Texas Red-X phalloidin (Invitrogen). The samples were treated with a mounting medium, and analyzed with a confocal microscope (Carl-Zeiss).

fascin-1 promoter = assay: Chromatin immunoprecipitation assay on fascin-1 promoter; settings: ChIP assay, with or without galectin-3
Experimental: (§7) Whole-cell lysate was used as a positive control. […] Whole-cell lysates were used as a positive control. (C) Chromatin immunoprecipitation assay was performed as described in the Materials and Methods of the Example section. Total genomic DNA on an input lane was used as a control for the PCR reaction. (D) Luciferase activity of TCF4 in lacZ and galectin-3 overexpressing cells. Luciferase assay was performed as described in the Example section. A construct of SP1 consensus was used as a negative control. […] Lamin A/C was used as a nuclear fraction control;
Chromatin immunoprecipitation assays were performed using a chIP assay kit (Upstate), according to the manufacturer's instructions. Anti-TCF4, anti-β-catenin, anti-galectin-3, and rabbit IgG were used to immunoprecipitate DNA-containing complexes. Primer was prepared with fascin-1 promoter binding sites: fascin-1 promoter (−1321), 5′-[…]-3′ (SEQ ID NO. 11) and (−1061) 5′-[…]-3′ (SEQ ID NO. 12), followed by performing PCR.

GSK-3β, β-catenin = assay: Immunocytochemistry of GSK-3β and β-catenin localization; settings: galectin-3-silenced cells, confocal microscope
Experimental: DAPI was used to figure out the nucleus (blue). Bars represent a 10 μm length;
as §6

[10] = test system: phosphorylated GSK-3β, β-catenin; assay: Western blotting of nuclear and cytosol fractions; settings: MKN-28 cells
Experimental: as §7, §3

β-catenin/TCF-4 = assay: Immunoprecipitation and Western blot of GSK-3β, β-catenin and TCF-4 interaction; settings: MKN-28 cells, immunoprecipitation
Experimental: as §7, §3

galectin-3 = assay: RT-PCR and Western blotting of galectin-3 after siRNA transfection; settings: MKN-28 cells, siRNA 5 and 10 nmol/L, 48 hrs after transfection
Experimental: as §5, with “control; […]” for “control;”
as §4

Substance: 5′-UCCAGCAAGAAUGCCAGCUGCU ACU-3′ (listed as RNA, chemistry not given here) [fascin-1 siRNA, siRNA silencing fascin-1, obtained from Invitrogen; called a candidate therapeutic agent]
- cell migration increased by galectin-3 overexpression (SNU638 cells [1]): significantly reduced
- colony formation (MKN-28 cells [2]): significantly reduced
- level of fascin-1 protein (fascin-1 [3]): diminished
- total number of migrated cells / cell migration (MKN-28 cells [4]): decreased the migration
- cell invasion by galectin-3 overexpression (SNU638 cells [5]): inhibitory effect
- wound healing (MKN-28 cells [6]): significantly reduced
- fascin-1 protein expression (fascin-1 [7]; fascin-1 siRNA, Western blot): reduced fascin-1 expression
- cell invasion (MKN-28 cells [8]): significantly reduced
- F-actin localization (MKN-28 cells [9]): appeared only in cell-cell contact areas
- cell morphology (MKN-28 cells [9]): changed to a round shape without spikes

Substance: 5′-AUAUGAAGCACUGGUGAGGUCUAUG-3′ (listed as RNA, chemistry not given here) [galectin-3 siRNA, siRNA silencing galectin-3, obtained from Invitrogen]
- binding of β-catenin and TCF-4 to the promoter regions of fascin-1 (fascin-1 promoter): lost their binding activity
- localization of GSK-3β (GSK-3β, β-catenin): located only in cytosol
- localization of β-catenin (GSK-3β, β-catenin): not detected either in the nucleus or cytosol
- colony formation (MKN-28 cells [2]): significantly reduced
- level of phosphorylated GSK-3β [10]: decreased in both the nucleus and the cytosol
- level of β-catenin [10]: decreased in both the nucleus and the cytosol
- total number of migrated cells / cell migration (MKN-28 cells [4]): reduced by almost half
- interaction between GSK-3β and β-catenin (β-catenin/TCF-4): weakened
- interaction between β-catenin and TCF-4 (β-catenin/TCF-4): diminished
- wound healing (MKN-28 cells [6]): significantly reduced
- expression levels of mRNAs and proteins of fascin-1 (fascin-1 [7]; galectin-3 siRNA 5 and 10 nmol/L, 48 hrs after transfection): reduction in the expression levels
- cell invasion (MKN-28 cells [8]): significantly reduced
- expression levels of mRNAs and proteins of galectin-3 (galectin-3): reduction in the expression levels
- F-actin localization (MKN-28 cells [9]): appeared only at cell-cell contact areas
- cell morphology (MKN-28 cells [9]): became round in shape and did not have any protruding regions
- fascin-1 expression in the cytosol (immunocytochemistry) (MKN-28 cells [9]): diminished in the cytosol

From US9068231B2, “Method for screening cancer therapeutic agent using galectin-3, GSK-3β, and fascin-1” (National Cancer Center, priority 2010, dated 2015)
